Results published in patent US6716852B2, “Amino acid derivatives and use thereof as NEP, ACE and ECE inhibitors” (Les Laboratories Servier, priority 2000, dated 2004).

How the values were obtained:
Format in all cases: biochemical
Neutral endopeptidase = molecular target: T1, Neutral endopeptidase (Oryctolagus cuniculus, UniProt P08049); experiment: Inhibition of neutral endopeptidase (fluorescent substrate DGNPA); conditions: NEP purified from rabbit kidney
T1 construct: Neutral endopeptidase is purified from rabbit kidney; from tissue; host or cells: rabbit kidney
T1 sequence (P08049 1-750): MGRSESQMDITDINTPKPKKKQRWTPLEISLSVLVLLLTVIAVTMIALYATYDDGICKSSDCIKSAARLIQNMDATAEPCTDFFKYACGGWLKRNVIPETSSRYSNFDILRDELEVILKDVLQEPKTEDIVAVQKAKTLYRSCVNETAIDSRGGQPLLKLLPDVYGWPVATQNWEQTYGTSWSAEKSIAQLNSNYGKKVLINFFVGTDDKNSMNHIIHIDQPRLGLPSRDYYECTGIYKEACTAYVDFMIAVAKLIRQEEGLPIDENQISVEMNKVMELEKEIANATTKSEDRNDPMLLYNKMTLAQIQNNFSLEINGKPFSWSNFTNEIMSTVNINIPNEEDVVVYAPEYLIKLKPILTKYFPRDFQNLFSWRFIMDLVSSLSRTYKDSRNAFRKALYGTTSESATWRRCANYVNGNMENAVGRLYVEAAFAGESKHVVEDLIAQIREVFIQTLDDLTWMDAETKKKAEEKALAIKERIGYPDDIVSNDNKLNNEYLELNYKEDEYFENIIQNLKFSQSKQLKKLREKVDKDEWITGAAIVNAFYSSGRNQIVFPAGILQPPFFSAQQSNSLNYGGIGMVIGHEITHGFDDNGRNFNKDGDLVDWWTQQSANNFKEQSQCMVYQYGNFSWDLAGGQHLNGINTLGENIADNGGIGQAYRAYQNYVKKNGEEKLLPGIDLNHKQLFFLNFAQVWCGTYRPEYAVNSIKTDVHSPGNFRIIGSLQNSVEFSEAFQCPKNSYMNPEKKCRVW
From the text: Neutral endopeptidase is purified from rabbit kidney according to the procedure described by Aubry et al. (Biochem. Cell Biol., 1987, 65, pp. 1037-1042).

[1] = molecular target: T2, angiotensin I converting enzyme (ACE) (Rattus norvegicus, UniProt P47820); experiment: Inhibition of angiotensin I converting enzyme (substrate N-Cbz-Phe-His-Leu); conditions: ACE purified from rat testicle
T2 construct: ACE is purified from rat testicle; from tissue; host or cells: rat testicle
T2 sequence (P47820 1-775 isoform P47820-2): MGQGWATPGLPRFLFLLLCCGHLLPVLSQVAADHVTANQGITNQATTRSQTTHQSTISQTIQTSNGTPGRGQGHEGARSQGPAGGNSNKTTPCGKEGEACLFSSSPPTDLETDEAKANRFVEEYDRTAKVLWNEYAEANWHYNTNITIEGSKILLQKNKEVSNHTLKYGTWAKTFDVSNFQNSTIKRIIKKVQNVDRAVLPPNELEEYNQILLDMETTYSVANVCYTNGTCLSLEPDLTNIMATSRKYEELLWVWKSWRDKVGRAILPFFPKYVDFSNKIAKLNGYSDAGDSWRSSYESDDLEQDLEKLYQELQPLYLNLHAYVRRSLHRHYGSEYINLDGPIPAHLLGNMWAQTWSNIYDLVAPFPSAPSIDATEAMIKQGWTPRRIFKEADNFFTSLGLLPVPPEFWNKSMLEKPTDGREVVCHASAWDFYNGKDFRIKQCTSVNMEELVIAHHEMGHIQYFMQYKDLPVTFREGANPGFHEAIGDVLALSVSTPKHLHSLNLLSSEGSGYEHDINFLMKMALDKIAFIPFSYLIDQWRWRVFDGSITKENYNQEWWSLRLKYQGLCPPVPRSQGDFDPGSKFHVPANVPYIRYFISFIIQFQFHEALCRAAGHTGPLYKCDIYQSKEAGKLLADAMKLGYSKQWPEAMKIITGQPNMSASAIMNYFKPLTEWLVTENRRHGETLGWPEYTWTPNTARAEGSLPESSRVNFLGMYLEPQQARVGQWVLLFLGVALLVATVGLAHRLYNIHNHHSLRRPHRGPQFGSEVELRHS
Experimental: ACE is purified from rat testicle according to the procedure described by Pantaliano et al. (Biochemistry, 1984, 23, pp. 1037-1042).
The enzyme activity is measured using the synthetic substrate N-Cbz-Phe-His-Leu, Km=[…] (Piquilloud Y. et al., Biochem. Biophys. Acta, 1970, 206, pp. 136-142).

ECE-1c = molecular target: T3, ECE-1c (Homo sapiens, UniProt P42892); experiment: Inhibition of endothelin converting enzyme (radiolabelled BigET-1 (19-35) substrate); conditions: ECE-1c expressed in Cos-7 cells; preincubated 10 minutes at 37° C., pH 6.5; read-out: Ki, inhibition of big endothelin converting enzyme
T3 construct: made in house; host or cells: Cos-7 cells (pcDNA3 vector, electroporation); membrane fraction extracted with 1% beta-octylglucose
T3 sequence (P42892 1-754 isoform P42892-3): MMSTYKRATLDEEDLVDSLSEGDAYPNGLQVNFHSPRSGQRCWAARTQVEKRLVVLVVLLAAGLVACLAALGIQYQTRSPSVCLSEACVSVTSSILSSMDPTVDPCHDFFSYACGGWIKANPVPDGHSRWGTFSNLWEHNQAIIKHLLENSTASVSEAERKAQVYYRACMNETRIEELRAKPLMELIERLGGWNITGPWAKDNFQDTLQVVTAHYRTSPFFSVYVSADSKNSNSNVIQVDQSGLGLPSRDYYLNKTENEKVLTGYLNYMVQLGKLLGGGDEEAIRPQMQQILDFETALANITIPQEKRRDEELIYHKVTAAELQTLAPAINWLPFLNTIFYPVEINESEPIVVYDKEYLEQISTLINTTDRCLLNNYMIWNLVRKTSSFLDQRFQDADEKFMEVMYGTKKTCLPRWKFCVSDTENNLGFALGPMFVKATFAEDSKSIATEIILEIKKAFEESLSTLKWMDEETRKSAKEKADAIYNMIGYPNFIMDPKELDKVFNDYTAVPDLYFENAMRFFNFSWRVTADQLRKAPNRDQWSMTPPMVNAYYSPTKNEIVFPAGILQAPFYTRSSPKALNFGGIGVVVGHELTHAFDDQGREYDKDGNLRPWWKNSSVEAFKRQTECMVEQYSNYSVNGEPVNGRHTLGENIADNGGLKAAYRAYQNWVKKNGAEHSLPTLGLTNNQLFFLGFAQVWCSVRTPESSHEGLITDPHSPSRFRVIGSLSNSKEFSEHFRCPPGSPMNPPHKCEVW
Experimental: The cDNA of ECE-1c (membrane form of the enzyme, Biochem. J., 1997, 328, pp. 871-877), was inserted into a pcDNA3 eucaryotic expression vector and then transfected by electroporation and expressed in Cos-7 cells.
To measure the ECE activity, the cells are homogenised and the membrane fraction is recovered. The enzyme is extracted by dissolution in β-octylglucose (1%).
The peptide BigET-1 (19-35) was prepared by solid phase synthesis in Fmoc chemistry and purified by semi-preparative HPLC. The propionylation of the peptide was effected by the action of N-succinimidyl-[2,3-^3H]-propionate on the peptide BigET-1 (19-35) and the radiolabelled product was purified by HPLC. The specific activity of the substrate is 97 Ci/mmole.
ECE-1c (10 μl of a solution diluted to 1/10) is dissolved in 400 μl of Trismaleate 50 mM, pH 6.5, in the presence of 250 mM NaCl. The reaction is initiated by the addition of 10 μl of the radioactive substrate (final concentration 1×10^−9 M). After incubation for 1 hour at 37° C., the reaction is stopped by the addition of 600 μl of ethyl acetate. The metabolite is separated from the intact substrate by liquid—liquid extraction. The radioactivity of the metabolite is determined by liquid scintillation. The kinetic constants of the substrate are: Km=[…] and Vmax=2.98±0.24 mmol/mg. prot./min.
The controls of 0% and 100% degradation are obtained, respectively, by incubation of the substrate with the inactivated enzyme and with the native enzyme in the absence of inhibitors.

Ki (Neutral endopeptidase) | Ki [1] | Ki (ECE-1c) | SMILES
2.91 ± 0.67 nM | 1.32 ± 0.17 nM | 23.3 ± 3.2 nM | O=C(N[C@@H](Cc1c[nH]c2ncccc12)C(=O)O)C(CS)C1CCc2cc(Br)ccc21 (stereo partly drawn) [33 (2S-3R-4S), N-[2-(5-Bromo-2,3-dihydro-1H-inden-1-yl)-3-mercaptopropanoyl]-3-(1H-pyrrolo [2,3-b]pyridin-3-yl)alanine]
10.2 ± 0.3 nM | 3.7 ± 0.38 nM | 21.2 ± 2.5 nM | O=C(N[C@@H](Cc1c[nH]c2c1ccc1cccnc12)C(=O)O)C(CS)C1CCc2cc(Br)ccc21 (stereo partly drawn) [63 (2S-3R-4S), N-[2-(5-Bromo-2,3-dihydro-1H-inden-1-yl)-3-mercaptopropanoyl]-3-(1H-pyrrolo[3,2-h]quinolin-3-yl)alanine]
3.28 ± 0.35 nM | 4.09 ± 0.49 nM | 24.4 ± 1.4 nM | O=C(N[C@@H](Cc1c[nH]c2ccccc12)C(=O)O)C(CS)C1CCc2cc(Br)ccc21 (stereo partly drawn) [13 (2S-3R-4S), N-[2-(5-Bromo-2,3-dihydro-1H-inden-1-yl)-3-mercaptopropanoyl]-tryptophan]
